# Laboratory results: patent publication US9107849B2, “Anti-glycation agent comprising a Garcinia kola extract or fraction” (UNIVERSITE D'ANGERS, priority 2012, dated 2015)
# Legend:
# [1] = DPPH antioxidant potential; details: for DPPH (μmol TE/g): TE: Trolox Equivalent
# [2] = target: T1, calf skin collagen (Bos taurus, UniProt P02453+P02465); assay: Anti-AGE activity on calf skin collagen in solution in the presence of ribose (pentosidine-type AGE fluorescence); type: biochemical; details: for IC50: read-out: Anti-AGE activity measured on collagen (IC50 in mg/mL) (converted)
# T1 construct: from tissue; host or cells: calf skin
# Protocol: Calf skin collagen (0.1 mg/mL) and ribose (0.5 M) are incubated in phosphate buffer 50 mM pH 7.4 at 37° C. in a 96-well Greiner bio-one plate with a black bottom (100 μL). The same experiment is performed in the presence of an AGE formation inhibitor, such as aminoguanidine (1 mg/mL, DMSO 10%). The following control solutions are also prepared: collagen (0.1 mg/mL) with or without an AGE formation inhibitor (1 mg/mL, DMSO 10%) is incubated in phosphate buffer 50 mM pH 7.4 at 37° C.
# [3] = ORAC antioxidant potential; details: for ORAC (μmol TE/g): TE: Trolox Equivalent
# [4] = target: albumin (Bos taurus, UniProt P02769); assay: Anti-AGE activity measured on albumin (pentosidine-type AGEs formed); type: biochemical; details: quantity of pentosidine-type AGEs formed
# [5] = ribose, quantity of pentosidine-type AGEs formed, NA: Inactive
# T1 sequence (P02453 162-1217 limits assumed): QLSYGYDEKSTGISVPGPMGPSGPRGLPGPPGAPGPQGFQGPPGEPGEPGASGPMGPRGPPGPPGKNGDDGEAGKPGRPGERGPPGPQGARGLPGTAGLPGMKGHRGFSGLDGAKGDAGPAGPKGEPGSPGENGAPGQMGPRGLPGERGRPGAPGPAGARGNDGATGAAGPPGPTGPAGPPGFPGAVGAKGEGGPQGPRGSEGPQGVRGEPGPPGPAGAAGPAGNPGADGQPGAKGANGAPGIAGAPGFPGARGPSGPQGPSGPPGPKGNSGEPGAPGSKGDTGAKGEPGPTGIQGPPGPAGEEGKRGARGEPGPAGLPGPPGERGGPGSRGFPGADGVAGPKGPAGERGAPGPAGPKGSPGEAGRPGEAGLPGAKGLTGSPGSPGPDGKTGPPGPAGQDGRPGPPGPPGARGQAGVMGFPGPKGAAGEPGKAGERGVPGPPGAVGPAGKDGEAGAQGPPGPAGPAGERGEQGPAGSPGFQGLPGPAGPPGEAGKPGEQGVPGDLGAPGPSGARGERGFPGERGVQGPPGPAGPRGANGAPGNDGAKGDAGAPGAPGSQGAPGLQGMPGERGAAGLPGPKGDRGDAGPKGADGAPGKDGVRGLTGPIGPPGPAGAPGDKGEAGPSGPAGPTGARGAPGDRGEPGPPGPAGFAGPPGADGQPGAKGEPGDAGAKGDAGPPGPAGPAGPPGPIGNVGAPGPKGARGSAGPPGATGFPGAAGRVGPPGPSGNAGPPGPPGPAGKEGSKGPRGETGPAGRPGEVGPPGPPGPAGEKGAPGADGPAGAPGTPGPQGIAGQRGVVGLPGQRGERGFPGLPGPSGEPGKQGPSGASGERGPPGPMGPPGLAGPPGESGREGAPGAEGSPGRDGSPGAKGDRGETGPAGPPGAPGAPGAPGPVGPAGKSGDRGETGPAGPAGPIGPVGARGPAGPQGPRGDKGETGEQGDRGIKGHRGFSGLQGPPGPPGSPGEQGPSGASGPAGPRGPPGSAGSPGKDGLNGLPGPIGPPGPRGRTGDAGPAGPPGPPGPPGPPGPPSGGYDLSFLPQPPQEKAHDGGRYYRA
# T1 sequence (P02465 80-1117 limits assumed): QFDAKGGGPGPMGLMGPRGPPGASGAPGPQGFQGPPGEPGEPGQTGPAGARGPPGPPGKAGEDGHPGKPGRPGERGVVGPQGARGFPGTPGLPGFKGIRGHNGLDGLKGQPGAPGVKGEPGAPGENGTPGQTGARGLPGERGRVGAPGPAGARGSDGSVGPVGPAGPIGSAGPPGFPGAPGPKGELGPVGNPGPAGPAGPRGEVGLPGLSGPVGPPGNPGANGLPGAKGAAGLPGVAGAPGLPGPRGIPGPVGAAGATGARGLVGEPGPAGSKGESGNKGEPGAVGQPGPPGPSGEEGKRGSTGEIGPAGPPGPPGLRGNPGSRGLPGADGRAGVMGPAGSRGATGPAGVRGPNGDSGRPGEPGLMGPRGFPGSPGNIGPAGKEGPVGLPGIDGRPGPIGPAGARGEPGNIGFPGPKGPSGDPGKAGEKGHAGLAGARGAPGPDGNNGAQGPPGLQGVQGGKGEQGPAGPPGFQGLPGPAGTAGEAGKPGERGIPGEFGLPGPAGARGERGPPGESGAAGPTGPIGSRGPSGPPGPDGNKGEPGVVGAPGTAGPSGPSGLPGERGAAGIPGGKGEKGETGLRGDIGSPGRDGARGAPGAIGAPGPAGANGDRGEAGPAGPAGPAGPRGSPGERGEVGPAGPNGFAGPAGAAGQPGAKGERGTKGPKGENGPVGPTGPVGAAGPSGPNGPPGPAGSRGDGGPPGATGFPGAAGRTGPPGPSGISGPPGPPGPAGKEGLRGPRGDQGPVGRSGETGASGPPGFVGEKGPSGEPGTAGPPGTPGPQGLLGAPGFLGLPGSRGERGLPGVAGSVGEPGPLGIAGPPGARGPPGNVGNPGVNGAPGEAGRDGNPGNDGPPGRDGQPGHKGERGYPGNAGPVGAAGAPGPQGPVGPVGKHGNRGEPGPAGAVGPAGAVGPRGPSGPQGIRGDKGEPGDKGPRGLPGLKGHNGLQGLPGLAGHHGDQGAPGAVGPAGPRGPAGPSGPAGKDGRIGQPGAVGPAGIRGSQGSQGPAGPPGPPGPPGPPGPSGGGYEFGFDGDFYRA
# Sequence of albumin (P02769 25-607): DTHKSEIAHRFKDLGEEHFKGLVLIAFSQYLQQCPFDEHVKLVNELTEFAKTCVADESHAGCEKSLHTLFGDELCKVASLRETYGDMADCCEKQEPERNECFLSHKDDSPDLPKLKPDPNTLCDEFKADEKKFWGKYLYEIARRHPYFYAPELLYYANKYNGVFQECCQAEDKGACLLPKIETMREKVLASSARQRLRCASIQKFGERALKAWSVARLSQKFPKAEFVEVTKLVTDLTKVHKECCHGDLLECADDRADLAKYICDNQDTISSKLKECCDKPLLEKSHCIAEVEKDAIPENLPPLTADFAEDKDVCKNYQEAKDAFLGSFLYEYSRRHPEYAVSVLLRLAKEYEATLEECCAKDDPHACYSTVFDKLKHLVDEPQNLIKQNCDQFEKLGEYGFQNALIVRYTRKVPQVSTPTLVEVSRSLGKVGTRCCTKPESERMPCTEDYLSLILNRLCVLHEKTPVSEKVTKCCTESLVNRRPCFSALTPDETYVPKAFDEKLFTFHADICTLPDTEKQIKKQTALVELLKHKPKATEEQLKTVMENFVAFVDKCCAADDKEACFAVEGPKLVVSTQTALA
"IC50 [2, 5] [µM]",Molecule,DPPH (μmol TE/g) [1] [μmol TE/g],ORAC (μmol TE/g) [3] [μmol TE/g],further results
1160,O=c1c(O)c(-c2ccc(O)c(O)c2)oc2cc(O)cc(O)c12 [Quercetin],6722,–,–
–,GB2,–,–,"Anti-AGE activity measured on collagen (IC50 in mg/mL) [2, 5]: 0.03 mg/mL"
–,C/C(=C\CC/C(C)=C/CC[C@]1(C)CCc2cc(O)cc(C)c2O1)CC/C=C(\C)C(=O)O [garcinoic acid],–,–,"anti-glycation activity on calf skin collagen (in words) [2]: has a real anti-glycation activity, but nevertheless inferior to that of kolaviron"
13500,N=C(N)NN [Aminoguanidine],0,0,"antioxidant activity, DPPH test (in words) [1]: does not have an antioxidant activity; antioxidant activity, ORAC test (in words) [3]: does not have an antioxidant activity; IC50 ([4]; read-out: Anti-AGE activity measured on albumin (IC50 in mg/mL) (converted)): 2020 µM"
–,Oc1cc(O)c2c(c1)O[C@H](c1ccc(O)c(O)c1)[C@H](O)[C@H]2c1c(O)cc(O)c2c1O[C@H](c1ccc(O)c(O)c1)[C@H](O)C2 [Procyanidin B2],3945,23720,Anti-AGE activity measured on albumin (IC50 in mg/mL) [4]: 0.1 mg/mL
